From US6150341A, “Vitamin B12 derivatives and methods for their preparation” (Biotch Australia Pty Limited, priority 1998, dated 2000)

target: T1, Porcine Intrinsic Factor (Sus scrofa, UniProt A0A8D1ENZ1); assay: Relative IF affinity of 5'O-VB12 derivatives (57CoVB12 competition, BSA-coated charcoal separation); conditions: inhibition of 57CoVB12 binding to porcine IF compared to unmodified VB12; 20 minutes at room temperature, pH 7.5
T1 construct: purchased Sigma
Description: Determination of the relative IF affinity of various 5'O-VB12 derivatives.
IF Buffer: BSA (VB12 and IF deficient) BSA (Sigma A-3902) was dissolved at 1 mg/ml in 0.1M potassium phosphate buffer pH 7.5.
^57 CoVB12 : ^57 Co stock (50 μl) (Kodak) was diluted into 50 ul of stock in 25 ml of IF buffer to give a solution of 1 ng ^57 CoVB12 /25 ml. 250 ng cold VB12 was added to 25 ml of hot ^57 CoVB12 solution to give a 10 ng/ml solution.
Porcine Intrinsic Factor: Porcine IF (Sigma) was dissolved in IF buffer at 200 Units/ml, and frozen in 500 ul lots (100 IU aliquots) until required.
BSA-coated charcoal: BSA (1%) was added to an equal volume of 5% charcoal solution of 0.1 M potassium phosphate buffer pH 7.5 and stirred gently for 30 minutes.
Ten fold up dilutions of VB12 or VB12 derivatives were prepared down to 1 ng/ml in IF buffer. An equal volume of diluted IF was added to each sample and incubated for 20 minutes at room temperature. An equal volume of the BSA-coated charcoal was added to each sample, which was mixed prior to centrifugation. Following centrifugation the supernatant and pellet of each sample were separated and ^57 CoVB12 determined by counting in a gamma counter. Data is represented as the % inhibition of ^57 CoVB2 binding when compared to unmodified VB12.

T1 sequence (A0A8D1ENZ1 29-425): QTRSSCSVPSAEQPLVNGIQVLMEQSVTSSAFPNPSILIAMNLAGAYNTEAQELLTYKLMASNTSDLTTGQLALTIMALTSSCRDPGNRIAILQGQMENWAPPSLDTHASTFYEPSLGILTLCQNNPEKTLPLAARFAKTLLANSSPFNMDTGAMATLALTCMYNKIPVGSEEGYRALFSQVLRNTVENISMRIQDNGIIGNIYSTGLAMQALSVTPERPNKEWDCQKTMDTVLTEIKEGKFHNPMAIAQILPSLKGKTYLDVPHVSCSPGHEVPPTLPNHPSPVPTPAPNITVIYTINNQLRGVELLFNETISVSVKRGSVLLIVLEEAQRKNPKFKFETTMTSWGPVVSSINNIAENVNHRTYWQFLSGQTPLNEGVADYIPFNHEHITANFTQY

How did the “% binding relative to vitamin B12” value turn out when “5'OH-(tetradecyl)-VB12 [tetradecyl-5'O-VB12]” was run?
The value was 4.2%.

“5'OH-(aminohexyl)-VB12 [aminohexyl-5'O-VB12]” was tested. Which “% binding relative to vitamin B12” value did it give?
Its value is 25%.

For “5'OH-(adipylhydrazidyl)-VB12 [adiphylhydrazidyl-5'O-VB12]”, which “% binding relative to vitamin B12” value is on record?
Its value is 29%.

With “5'OH-(aminoethyl)-VB12 [aminoethyl-5'O-VB12]” as the substance, how does the “% binding relative to vitamin B12” value read?
Its value is 40%.

Which “% binding relative to vitamin B12” value does the source give for 5'OH-(hexyl)-VB12 [hexyl-5'O-VB12] here?
Its value is 49%.

For VB12 -glycine acid [HO-Gly-5'O-VB12], which “% binding relative to vitamin B12” value is on record?
Its value is 25%.

Which “% binding relative to vitamin B12” value does the source give for “5'OH-(hexadecyl)-VB12 [hexadecy-5'O-VB12]” here?
The value was 0.78%.

How did the “% binding relative to vitamin B12” value turn out when “5'OH-(aminobutyl)-VB12 [aminobutyl-5'O-VB12]” was run?
The value was 27%.

5'OH-(dodecyl)-VB12 [dodecyl-5'O-VB12] was tested. Which “% binding relative to vitamin B12” value did it give?
The value was 35%.

“5'OH-(aminododecanyl)-VB12 [aminododecanyl-5'O-VB12]” was tested. Which “% binding relative to vitamin B12” value did it give?
Its value is 31%.

With “5'OH-(succinylhydrazidyl)-VB12 [succinylhydrazidyl-5'O-VB12]” as the substance, how does the “% binding relative to vitamin B12” value read?
Its value is 37%.

For “5'OH-(octadecyl)-VB12 [octadecyl-5'O-VB12]”, which “% binding relative to vitamin B12” value is on record?
The value was 0.57%.
